{"source": "ChEMBL document CHEMBL1795295", "about": "“Synthesis and antimycobacterial activity of highly functionalized tetrahydro-4(1H)-pyridinones” (2011)", "test_system": "Mycobacterium tuberculosis", "assay": "Antimycobacterial activity against Mycobacterium tuberculosis H37Rv by agar dilution method", "type": "functional"}
{"smiles": "O=C1C[C@H](c2ccc(Cl)cc2)N[C@H](c2ccc(Cl)cc2)[C@H]1c1ccccc1", "values": [{"measurement": "MIC", "result": 31.5, "unit": "µM"}]}
{"smiles": "Cc1ccc([C@H]2N[C@@H](c3ccc(C)cc3)CC(=O)[C@@H]2c2ccccc2)cc1", "values": [{"measurement": "MIC", "result": 70.3, "unit": "µM"}]}
{"smiles": "O=C1C[C@H](c2ccc(F)cc2)N[C@H](c2ccc(F)cc2)[C@H]1c1ccccc1", "values": [{"measurement": "MIC", "result": 34.4, "unit": "µM"}]}
{"smiles": "O=C1C[C@H](c2ccccc2Cl)N[C@H](c2ccccc2Cl)[C@H]1c1ccccc1", "values": [{"measurement": "MIC", "result": 31.5, "unit": "µM"}]}
{"smiles": "Cc1ccccc1[C@H]1N[C@@H](c2ccccc2C)CC(=O)[C@@H]1c1ccccc1", "values": [{"measurement": "MIC", "result": 70.3, "unit": "µM"}]}
{"smiles": "COc1ccccc1[C@H]1N[C@@H](c2ccccc2OC)CC(=O)[C@@H]1c1ccccc1", "values": [{"measurement": "MIC", "result": 64.5, "unit": "µM"}]}
{"smiles": "O=C1[C@H](c2ccccc2)[C@@H](c2ccccc2)N[C@@H](c2ccccc2)[C@@H]1c1ccccc1", "values": [{"measurement": "MIC", "result": 62, "unit": "µM"}]}
{"smiles": "O=C1[C@H](c2ccccc2)[C@@H](c2ccc(Cl)cc2)N[C@@H](c2ccc(Cl)cc2)[C@@H]1c1ccccc1", "values": [{"measurement": "MIC", "result": 13.2, "unit": "µM"}]}
{"smiles": "Cc1ccc([C@H]2N[C@@H](c3ccc(C)cc3)[C@H](c3ccccc3)C(=O)[C@@H]2c2ccccc2)cc1", "values": [{"measurement": "MIC", "result": 29, "unit": "µM"}]}
{"smiles": "COc1ccc([C@H]2N[C@@H](c3ccc(OC)cc3)[C@H](c3ccccc3)C(=O)[C@@H]2c2ccccc2)cc1", "values": [{"measurement": "MIC", "result": 27, "unit": "µM"}]}
{"smiles": "O=C1[C@H](c2ccccc2)[C@@H](c2ccc(F)cc2)N[C@@H](c2ccc(F)cc2)[C@@H]1c1ccccc1", "values": [{"measurement": "MIC", "result": 7.12, "unit": "µM"}]}
{"smiles": "O=C1[C@H](c2ccccc2)[C@@H](c2ccccc2Cl)N[C@@H](c2ccccc2Cl)[C@@H]1c1ccccc1", "values": [{"measurement": "MIC", "result": 13.2, "unit": "µM"}]}
{"smiles": "Cc1ccccc1[C@H]1N[C@@H](c2ccccc2C)[C@H](c2ccccc2)C(=O)[C@@H]1c1ccccc1", "values": [{"measurement": "MIC", "result": 29, "unit": "µM"}]}
{"smiles": "COc1ccccc1[C@H]1N[C@@H](c2ccccc2OC)[C@H](c2ccccc2)C(=O)[C@@H]1c1ccccc1", "values": [{"measurement": "MIC", "result": 27, "unit": "µM"}]}
{"smiles": "O=NN1C(c2ccccc2)CC(=O)C(c2ccccc2)C1c1ccccc1", "note": "(stereo not drawn)", "values": [{"measurement": "MIC", "result": 17.5, "unit": "µM"}]}
{"smiles": "O=NN1C(c2ccc(Cl)cc2)CC(=O)C(c2ccccc2)C1c1ccc(Cl)cc1", "note": "(stereo not drawn)", "values": [{"measurement": "MIC", "result": 7.35, "unit": "µM"}]}
{"smiles": "Cc1ccc(C2CC(=O)C(c3ccccc3)C(c3ccc(C)cc3)N2N=O)cc1", "note": "(stereo not drawn)", "values": [{"measurement": "MIC", "result": 8.14, "unit": "µM"}]}
{"smiles": "O=NN1C(c2ccc(F)cc2)CC(=O)C(c2ccccc2)C1c1ccc(F)cc1", "note": "(stereo not drawn)", "values": [{"measurement": "MIC", "result": 3.97, "unit": "µM"}]}
{"smiles": "Cc1ccccc1C1CC(=O)C(c2ccccc2)C(c2ccccc2C)N1N=O", "note": "(stereo not drawn)", "values": [{"measurement": "MIC", "result": 8.14, "unit": "µM"}]}
{"smiles": "O=NN1C(c2ccccc2)C(c2ccccc2)C(=O)C(c2ccccc2)C1c1ccccc1", "note": "(stereo not drawn)", "values": [{"measurement": "MIC", "result": 14.4, "unit": "µM"}]}
{"smiles": "O=NN1C(c2ccc(Cl)cc2)C(c2ccccc2)C(=O)C(c2ccccc2)C1c1ccc(Cl)cc1", "note": "(stereo not drawn)", "values": [{"measurement": "MIC", "result": 3.11, "unit": "µM"}]}
{"smiles": "Cc1ccc(C2C(c3ccccc3)C(=O)C(c3ccccc3)C(c3ccc(C)cc3)N2N=O)cc1", "note": "(stereo not drawn)", "values": [{"measurement": "MIC", "result": 6.79, "unit": "µM"}]}
{"smiles": "COc1ccc(C2C(c3ccccc3)C(=O)C(c3ccccc3)C(c3ccc(OC)cc3)N2N=O)cc1", "note": "(stereo not drawn)", "values": [{"measurement": "MIC", "result": 12.7, "unit": "µM"}]}
{"smiles": "O=NN1C(c2ccccc2Cl)C(c2ccccc2)C(=O)C(c2ccccc2)C1c1ccccc1Cl", "note": "(stereo not drawn)", "values": [{"measurement": "MIC", "result": 3.11, "unit": "µM"}]}
{"smiles": "Cc1ccccc1C1C(c2ccccc2)C(=O)C(c2ccccc2)C(c2ccccc2C)N1N=O", "note": "(stereo not drawn)", "values": [{"measurement": "MIC", "result": 6.79, "unit": "µM"}]}
{"smiles": "COc1ccccc1C1C(c2ccccc2)C(=O)C(c2ccccc2)C(c2ccccc2OC)N1N=O", "note": "(stereo not drawn)", "values": [{"measurement": "MIC", "result": 6.35, "unit": "µM"}]}
{"smiles": "N#CN1C(c2ccccc2)CC(=O)C(c2ccccc2)C1c1ccccc1", "note": "(stereo not drawn)", "values": [{"measurement": "MIC", "result": 70.9, "unit": "µM"}]}
{"smiles": "N#CN1C(c2ccc(Cl)cc2)CC(=O)C(c2ccccc2)C1c1ccc(Cl)cc1", "note": "(stereo not drawn)", "values": [{"measurement": "MIC", "result": 29.7, "unit": "µM"}]}
{"smiles": "Cc1ccc(C2CC(=O)C(c3ccccc3)C(c3ccc(C)cc3)N2C#N)cc1", "note": "(stereo not drawn)", "values": [{"measurement": "MIC", "result": 65.7, "unit": "µM"}]}
{"smiles": "COc1ccc(C2CC(=O)C(c3ccccc3)C(c3ccc(OC)cc3)N2C#N)cc1", "note": "(stereo not drawn)", "values": [{"measurement": "MIC", "result": 30.3, "unit": "µM"}]}
{"smiles": "N#CN1C(c2ccc(F)cc2)CC(=O)C(c2ccccc2)C1c1ccc(F)cc1", "note": "(stereo not drawn)", "values": [{"measurement": "MIC", "result": 16.1, "unit": "µM"}]}
{"smiles": "N#CN1C(c2ccccc2)C(c2ccccc2)C(=O)C(c2ccccc2)C1c1ccccc1", "note": "(stereo not drawn)", "values": [{"measurement": "MIC", "result": 58.3, "unit": "µM"}]}
{"smiles": "N#CN1C(c2ccc(Cl)cc2)C(c2ccccc2)C(=O)C(c2ccccc2)C1c1ccc(Cl)cc1", "note": "(stereo not drawn)", "values": [{"measurement": "MIC", "result": 25.1, "unit": "µM"}]}
{"smiles": "N#CN1C(c2ccccc2Cl)C(c2ccccc2)C(=O)C(c2ccccc2)C1c1ccccc1Cl", "note": "(stereo not drawn)", "values": [{"measurement": "MIC", "result": 12.6, "unit": "µM"}]}
{"smiles": "Cc1ccccc1C1C(c2ccccc2)C(=O)C(c2ccccc2)C(c2ccccc2C)N1C#N", "note": "(stereo not drawn)", "values": [{"measurement": "MIC", "result": 27.4, "unit": "µM"}]}
{"smiles": "CC[C@@H](CO)NCCN[C@@H](CC)CO", "note": "[ETHAMBUTOL]", "values": [{"measurement": "MIC", "result": 7.6, "unit": "µM"}]}
{"smiles": "NNC(=O)c1ccncc1", "note": "[ISONIAZID]", "values": [{"measurement": "MIC", "result": 0.4, "unit": "µM"}]}
{"smiles": "NC(=O)c1cnccn1", "note": "[PYRAZINAMIDE]", "values": [{"measurement": "MIC", "result": 50.8, "unit": "µM"}]}
